Laboratory results as given in PubChem BioAssay AID2060488 (Molecular Pharmacology Branch, DTP, NCI, 2025).
Several values for one entry are separate records, joined by “and”; a condition that tells them apart may be missing. Equal values may be shown once.

Tested on: 966289-007-R4-J1-PDC complex spheroid viability
Assay: Anticancer human tumor 966289-007-R4-J1-PDC patient-derived pancreatic adenocarcinoma cell line growth inhibition [GQUAD]
Details: for viability, T/C: stronger effect = lower value
Excerpt: DNA G-quadruplex Stabilizer Agents in Combinations in Complex Spheroids
A high-throughput screen of multi-cell type tumor spheroids was designed to identify active combinations of DNA G-quadruplex stabilizer agents and targeted small molecules. Complex spheroids include a stromal component modeled by human endothelial cells (HUVEC) and fibroblasts modeled by human mesenchymal stem cells (MSCs). The concentration ranges selected for each drug and investigational agent were based upon clinically achievable concentrations if the clinical Cmax of the agent was known.
Compounds. The drugs and investigational agents: pidnarulex (CX-5461; NSC782164), APTO-253 (NSC789042), BRACO-19 (NSC847499), peposertib (NSC802822), ceralasertib (NSC780249), elimusertib (NSC800525), camonsertib (NSC841442), AZD-1390 (NSC803789), olaparib (NSC753686), talazoparib (NSC767125), ART-558 (NSC835418), sotorasib (NSC818433), MRTX-1133 (NSC836407), SN-38 (NSC673596), topotecan (NSC609699), etoposide (NSC141540), doxorubicin (NSC123127), gemcitabine (NSC613327), 5-fluorouracil (NSC19893), paclitaxel (NSC125973), vemurafenib (NSC761431), panobinostat (NSC761190), R-306465 (JNJ-16241199; NSC773264), adavosertib (NSC754352), TP-3654 (NSC805149), carboplatin (NSC241240), KSQ-4279 (NSC840948), and staurosporine (NSC755774) were obtained from the National Cancer Institute (NCI) Developmental Therapeutics Program Chemical Repository (34). The FDA-approved anticancer drug set is available from the NCI Developmental Therapeutics Program. […] The stock solutions were prepared in dimethyl sulfoxide (DMSO, Sigma-Aldrich, St. Louis, MO, cat. D2650) at 800-fold the tested concentration and stored at -70 degrees C prior to their use. All drugs and investigational agents were tested over a range starting from a high concentration at or near the clinical Cmax and decreasing in half-log increments. If the clinical Cmax for an agent had not been determined, the highest concentration tested was 10 microM.
2.3 Cell Culture. All cells were maintained in an incubator at 37 degrees C and 5% CO2 with 95% humidity. The PDC lines were cultured according to standard operating procedures established by the NCI PDMR. All PDCs were thawed and cultured in Matrigel-coated flasks prepared with a working solution of 1X Ham's F-12 nutrient mix, without supplementation (Invitrogen, cat. 11765054), 100 U/mL penicillin-streptomycin (Invitrogen, cat. 15140122), and 2.5% Matrigel (Corning Inc., cat. 354248) for the first three passages. The 857933-349-R-J2-PDC line was cultured in 6C/Colon 1B media, which includes advanced DMEM/F-12 (Thermo Fisher Scientific, cat. 12634028), 10 mM HEPES (Thermo Fisher Scientific, cat. 15630080), 1X GlutaMAX supplement (Thermo Fisher Scientific, cat. 35050061), 0.1 mg/mL primocin (InvivoGen, cat. ant-pm-2), 10% defined fetal bovine serum, heat inactivated (HyClone Laboratories Inc., cat. SH30070.03HI), 50% L-WRN conditioned media (ATCC, cat. CRL-3276), 1.25 mM N-Acetyl-L-cysteine (Sigma-Aldrich, cat. A9165), 10 mM nicotinamide (Sigma-Aldrich, cat. N0636), 1X B-27 supplement (Thermo Fisher Scientific, cat. 17504044), 1X N-2 supplement (Thermo Fisher Scientific, cat. 17502048), 10 microM Y-27632 dihydrochloride (Tocris Bioscience, cat. 1254), and 50 ng/mL human EGF recombinant protein (Thermo Fisher Scientific, cat. PHG0311). The 485176-168-R4-J1-PDC line was cultured in Panc media, which includes all 6C/Colon 1B media components plus 100 ng/mL human FGF-10 (Thermo Fisher Scientific, cat. 100-26), 500 nM SB-431542 (Selleckchem, cat. S1067), and gastrin (Tocris, cat. 3006).
[…]
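Further: spheroids exposed to the agents for seven days before readout.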
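Wherever viability, T/C is given: percent viability relative to DMSO vehicle control wells taken as 100%.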

## CCCS(=O)(=O)Nc1ccc(F)c(C(=O)c2c[nH]c3ncc(-c4ccc(Cl)cc4)cc23)c1F
Compound 0.0316 µM
  viability, T/C: 109% and 105% and 99.4%
Compound 0.1 µM
  viability, T/C: 102% and 96% and 99.5%
Compound 0.316 µM
  viability, T/C: 111% (2×) and 97.8%
Compound 1 µM
  viability, T/C: 110% and 106% and 114%
Compound 3.16 µM
  viability, T/C: 114% (2×) and 108%
Compound 10 µM
  viability, T/C: 37.5% and 36.5% and 38%
Curve of compound
  IC50: 8170 nM and 7890 nM and 8200 nM

## O=C(NO)c1cnc(N2CCN(S(=O)(=O)c3ccc4ccccc4c3)CC2)nc1
Compound 0.0316 µM
  viability, T/C: 104% and 97% and 89.4%
Compound 0.1 µM
  viability, T/C: 104% (2×) and 99.9%
Compound 0.316 µM
  viability, T/C: 33.4% and 39% and 70%
Compound 1 µM
  viability, T/C: 7.89% and 9.13% and 14.1%
Compound 3.16 µM
  viability, T/C: 1.55% and 1.2% and 4.88%
Compound 10 µM
  viability, T/C: 0.4% and 0.34% and 0.29%
Curve of compound
  IC50: 241 nM and 258 nM and 480 nM

## CC(C)n1c(=O)n(C)c2cnc3cc(F)c(-c4ccc(OCCCN5CCCCC5)nc4)cc3c21 + Cc1cnc(CNC(=O)c2c(=O)c3ccc(N4CCCN(C)CC4)nc3n3c2sc2ccccc23)cn1
Curve of first compound, second compound 0.0316 µM
  IC50: < 31.6 nM
Curve of first compound, second compound 0.1 µM
  IC50: < 31.6 nM
Curve of first compound, second compound 0.316 µM
  IC50: < 31.6 nM
Curve of first compound, second compound 1 µM
  IC50: < 31.6 nM
Curve of first compound, second compound 3.16 µM
  IC50: < 31.6 nM
Curve of first compound, second compound 10 µM
  IC50: < 31.6 nM
Second compound 0.0316 µM, first compound 0.0316 µM
  viability, T/C: 36.8%
Second compound 0.0316 µM, first compound 0.1 µM
  viability, T/C: 18.8%
Second compound 0.0316 µM, first compound 0.316 µM
  viability, T/C: 21.1%
Second compound 0.0316 µM, first compound 1 µM
  viability, T/C: 15.4%
Second compound 0.0316 µM, first compound 3.16 µM
  viability, T/C: 33.4%
Second compound 0.0316 µM, first compound 10 µM
  viability, T/C: 31.6%
Second compound 0.1 µM, first compound 0.0316 µM
  viability, T/C: 10.5%
Second compound 0.1 µM, first compound 0.1 µM
  viability, T/C: 7.68%
Second compound 0.1 µM, first compound 0.316 µM
  viability, T/C: 8.96%
Second compound 0.1 µM, first compound 1 µM
  viability, T/C: 9.72%
Second compound 0.1 µM, first compound 3.16 µM
  viability, T/C: 12.6%
Second compound 0.1 µM, first compound 10 µM
  viability, T/C: 17.9%
Second compound 0.316 µM, first compound 0.0316 µM
  viability, T/C: 6.19%
Second compound 0.316 µM, first compound 0.1 µM
  viability, T/C: 6.34%
Second compound 0.316 µM, first compound 0.316 µM
  viability, T/C: 5.97%
Second compound 0.316 µM, first compound 1 µM
  viability, T/C: 6.08%
Second compound 0.316 µM, first compound 3.16 µM
  viability, T/C: 7.07%
Second compound 0.316 µM, first compound 10 µM
  viability, T/C: 8.93%
Second compound 1 µM, first compound 0.0316 µM
  viability, T/C: 3.82%
Second compound 1 µM, first compound 0.1 µM
  viability, T/C: 4.77%
Second compound 1 µM, first compound 0.316 µM
  viability, T/C: 3.79%
Second compound 1 µM, first compound 1 µM
  viability, T/C: 4.54%
Second compound 1 µM, first compound 3.16 µM
  viability, T/C: 5.48%
Second compound 1 µM, first compound 10 µM
  viability, T/C: 5.76%
Second compound 3.16 µM, first compound 0.0316 µM
  viability, T/C: 1.67%
Second compound 3.16 µM, first compound 0.1 µM
  viability, T/C: 2.31%
Second compound 3.16 µM, first compound 0.316 µM
  viability, T/C: 1.96%
Second compound 3.16 µM, first compound 1 µM
  viability, T/C: 2.66%
Second compound 3.16 µM, first compound 3.16 µM
  viability, T/C: 3.94%
Second compound 3.16 µM, first compound 10 µM
  viability, T/C: 3%
Second compound 10 µM, first compound 0.0316 µM
  viability, T/C: 0.09%
Second compound 10 µM, first compound 0.1 µM
  viability, T/C: 0.12%
Second compound 10 µM, first compound 0.316 µM
  viability, T/C: 0.27%
Second compound 10 µM, first compound 1 µM
  viability, T/C: 0.16%
Second compound 10 µM, first compound 3.16 µM
  viability, T/C: 0.16%
Second compound 10 µM, first compound 10 µM
  viability, T/C: 0.15%

## COc1ncnc(C2CC2)c1-c1ncc2cnn(Cc3ccc(-c4nc(C(F)(F)F)cn4C(C)C)cc3)c2n1
Compound 0.0316 µM
  viability, T/C: 92.2% and 102% and 104%
Compound 0.1 µM
  viability, T/C: 102% and 103% and 100%
Compound 0.316 µM
  viability, T/C: 101% and 102% and 100%
Compound 1 µM
  viability, T/C: 107% and 98% and 97%
Compound 3.16 µM
  viability, T/C: 103% and 106% (2×)
Compound 10 µM
  viability, T/C: 116% and 108% (2×)
Curve of compound
  IC50: > 10000 nM
